Measured values from article PMC5413024, “Mechanistic insights into the more potent effect of KP-54 compared to KP-10 in vivo” (PLoS ONE, 2017).
In brackets after ≈: the same amount, converted by molar mass.

Key:
plasma LH levels = assay: Study 2: plasma LH after a high dose or multiple i.p. injections of KP-10; assay type: in vivo, mouse; conditions: male mice, single i.p. injection of 1 nmol, mean ± s.e.m., n = 10
Method: Male mice received a single intraperitoneal (i.p.) injection of 100 μl of PBS (vehicle control), KP-10 (1 nmol), KP-10 (10 nmol), KP-54 (1 nmol) or a series of six i.p. injections (every 10 minutes over one hour) of KP-10 (1 nmol) to extend the duration of action of KP-10. 100 μl of blood was collected from a tail vein 10 min after the final injection and the mice were killed 2 hours after treatment by an injection of pentobarbital (100mg/kg i.p.). Blood was collected from the vena cava, mixed with 5 μl EDTA, centrifuged at 10,000 x g for 10 min at 4°C to obtain the plasma fraction, and stored at -20°C until assayed.
3–5 month old wild-type (129S6/SvEv) male mice were used in this study. The mice were housed in open cages on a 12 hour light cycle (lights on at 0700 h) at a controlled temperature (22°C), and were provided with food and water ad libitum. All experiments were performed under the authority of a United Kingdom Home Office Project License and were approved by a Cambridge Animal Ethics Committee.
Plasma LH was assayed using a commercial ELISA kit (LH Ultrasensitive Rodent ELISA, Endocrine Technologies Cat Number ERK 7010+) with a sensitivity of 0.3 ng/ml and 7% intra-assay and 10% inter-assay coefficients of variation. […]

c-FOS in GnRH neurons = assay: Study 3: c-FOS activation in GnRH neurons after peripheral kisspeptin (dual-label immunohistochemistry, BSA-FITC to define the BBB); assay type: in vivo, mouse; conditions: male mice
Method: Induction of expression of the immediate early gene c-Fos is regarded as a marker of neuronal activation. KISS1R activation results in c-FOS induction, which allows identification of the GnRH neurons that are activated by KP. We examined co-localization of c-FOS protein in GnRH neurons by immunohistochemistry 2h after peripheral injection of either KP-10 or KP-54. […] 1 nmol KP-54 was injected first, followed by injection of 100 μl of a 50mg/ml solution of BSA-FITC into the tail vein. The mice were perfused with 4% paraformaldehyde/PBS 2 hrs after KP-54 injection and the brains processed for c-FOS, GnRH and BSA-FITC detection. A negative control for fluorescence was also performed with unconjugated BSA.
Free-floating, dual-label chromogen immunohistochemistry was undertaken as described previously. Mice were perfused with 4% paraformaldehyde in PBS and the brains removed and post-fixed for 1h in the same fixative. The brains were cut as 40 μm free-floating coronal sections using a vibratome (VT1000S; Leica). […]
Sections were examined using an Axioscope 2 plus microscope (Carl Zeiss) using bright-field or fluorescence microscopy. […] Where appropriate, BSA-FITC was detected by epifluorescence microscopy at an excitation wavelength of 490 nm and an emission wavelength of 525 nm (green). About fifteen successive sections containing GnRH neurons were counted per animal (n = 6 per treatment). […]

[1] = from the product data sheets; ref product data sheets (manufacturer); cited from earlier work
Method: KP-10 [human Metastin (45–54) amide, M-2816] was purchased from Sigma-Aldrich. KP-10 consists of the C-terminal 10-amino acids of KP-54. Human KP-54 was synthesized by the Advanced Biotechnology Centre, Imperial College, London, UK. BSA-FITC was purchased from Sigma (A9771). From the product data sheets, the solubility of KP-10 and KP-54 in water is 1mg/ml. We prepared stock solutions in sterile PBS at 100 μM, which is almost ten times lower than the solubility limit set by the manufacturer. The 100 μM stock solution was diluted in sterile PBS and 100 μl of the working solution was injected to ...

## CC[C@H](C)[C@H](NC(=O)[C@H](CCC(N)=O)NC(=O)[C@H](CCCNC(=N)N)NC(=O)[C@H](CO)NC(=O)[C@H](Cc1c[nH]cn1)NC(=O)[C@@H]1CCCN1C(=O)[C@H](C)NC(=O)[C@H](CO)NC(=O)[C@H](CC(C)C)NC(=O)CNC(=O)[C@@H]1CCCN1C(=O)[C@H](CCC(N)=O)NC(=O)[C@H](CCC(N)=O)NC(=O)[C@H](CCCNC(=N)N)NC(=O)[C@H](CO)NC(=O)CNC(=O)[C@H](CO)NC(=O)[C@H](CO)NC(=O)[C@H](CCC(=O)O)NC(=O)[C@@H]1CCCN1C(=O)[C@@H]1CCCN1C(=O)[C@@H]1CCCN1C(=O)[C@H](CO)NC(=O)[C@H](CC(C)C)NC(=O)[C@H](CO)NC(=O)[C@@H](NC(=O)CN)[C@@H](C)O)C(=O)N1CCC[C@H]1C(=O)N[C@@H](C)C(=O)N1CCC[C@H]1C(=O)N[C@@H](CCC(N)=O)C(=O)NCC(=O)N[C@@H](C)C(=O)N[C@H](C(=O)N[C@@H](CC(C)C)C(=O)N[C@H](C(=O)N[C@@H](CCC(N)=O)C(=O)N[C@@H](CCCNC(=N)N)C(=O)N[C@@H](CCC(=O)O)C(=O)N[C@@H](CCCCN)C(=O)N[C@@H](CC(=O)O)C(=O)N[C@@H](CC(C)C)C(=O)N1CCC[C@H]1C(=O)N[C@@H](CC(N)=O)C(=O)N[C@@H](Cc1ccc(O)cc1)C(=O)N[C@@H](CC(N)=O)C(=O)N[C@@H](Cc1c[nH]c2ccccc12)C(=O)N[C@@H](CC(N)=O)C(=O)N[C@@H](CO)C(=O)N[C@@H](Cc1ccccc1)C(=O)NCC(=O)N[C@@H](CC(C)C)C(=O)N[C@@H](CCCNC(=N)N)C(=O)N[C@@H](Cc1ccccc1)C(N)=O)C(C)C)C(C)C [KP-54]
Plasma LH levels
  plasma LH level at 2 hrs: 9.62 ± 1.67 ng/mL
c-FOS in GnRH neurons; 1 nmol KP-54 plus i.v. BSA-FITC (does not cross the BBB), 2 h, n = 3
  c-FOS activation of GnRH neurons behind the blood brain barrier (functional surrogate for BBB crossing): c-FOS-positive GnRH neurons in hypothalamic areas that were negative for BSA-FITC
c-FOS in GnRH neurons; 2 h after peripheral injection of 1 nmol, n = 6, vehicle 0.54 ± 0.15%
  percentage of GnRH neurons positive for c-FOS (all regions): 22.07 ± 2.96%
[1]
  solubility in water: 1000 µg/mL (≈ 171 µM)
